From publication PMC3139667, “A Screen against Leishmania Intracellular Amastigotes: Comparison to a Promastigote Screen and Identification of a Host Cell-Specific Hit” (PLoS Neglected Tropical Diseases, 2011)
Where two headings read alike, the source gives them in different places.

Legend:
[1] = tested on: THP-1; test: Host cell toxicity: THP-1 host nuclei counts in the image-based assay; conditions: for GI50: Homo sapiens, THP-1, 72 h, read-out: GI50 THP-1; for Selectivity: ratio between parasite GI50 and THP-1 GI50
Description: (§1) Sterile, black, 96-well, clear bottom plates (Greiner Bio-One) were seeded with exponentially growing THP-1 (5×10^5cells/ml). THP-1 were treated with 0.1 µM phorbol myristate acetate (PMA, Sigma) at 37°C for 48 h to achieve differentiation into adherent, non-dividing macrophages. Maturation of THP-1 cells towards monocyte-macrophage like cells is essential to avoid parasitized cells being overgrown by replicating cells. After activation by PMA, cells were washed and incubated with complete RPMI medium containing stationary phase L. donovani promastigotes at a macrophage/promastigote ratio of 1/15. After 4 h incubation at 37°C, non-internalized promastigotes were removed by 2–3 successive washes with RPMI containing 5% FBS and 5% horse serum. Test compounds (10 µM), positive control (2 µM amphotericin B) or negative control (1% DMSO) were then added to the cultures using a Biomek FXp liquid handler (Beckman Coulter). Cultures were incubated at 37°C for 72 h. Cells were then washed with phosphate-buffered saline (PBS), fixed for 30 minutes with 4% formaldehyde, rinsed again with PBS, stained for 2 h with 4′,6′-diamidino-2-phenylindole (DAPI 300 nM) and finally washed with PBS. […] Images were acquired with an INCell Analyzer 1000 automated epi-fluorescent microscope (G.E. Healthcare). The excitation and emission filters used to detect DAPI were 350/50 nm and 460/40 nm respectively. Eight image fields were acquired per well with a 20X objective. The proprietary INCell Developer Toolbox 1.7 software was used for image analysis. Segmentation parameters were set to identify host nuclei with a minimum area of 250 µm^2 and parasite kinetoplast with an average area of 1 µm^2. The intensity of parasite nucleus was too low to be detected with a 20X objective. A border, representing the boundary of the cell, was drawn around the nucleus (total area between 700 and 2000 µm^2). Only parasites found within this area were included in the calculation to eliminate extracellular parasites. False positive parasite detection in the nucleus was also excluded from the calculation. Host cell nuclei and parasite kinetoplasts were counted and the ratio of parasites DNA to host nuclei was selected as the measurement output. Percentage inhibition of parasite growth was calculated as [1-(P/hcx-P/hc^+)/(P/hc^−-P/hc^+)]*100 where P/hcx, P/hc^+ and P/hc^− are parasite per host cell ratio for every well, positive control (amphotericin B) and negative control (DMSO) respectively. Calculation of Z' factor and GI50 curve fitting were carried out as described above.

[2] = tested on: L. donovani promastigotes; test: Promastigote high-throughput ATP-bioluminescence assay; type: cell-based, Leishmania donovani; conditions: Leishmania donovani; 72 h at 27°C, CellTiter-Glo; read-out: GI50 Promastigote
Description: L. donovani promastigotes from an exponentially growing culture were diluted to 10^6/ml in RPMI containing 10% FBS and 10% BHT. The diluted culture (99 µl/well) was dispensed in sterile 96-well flat white opaque assay plates (Greiner Bio-One) using a WellMate multichannel dispenser (Matrix). 1 µl of 1 mM test compound dissolved in DMSO was added to the plates for a final concentration of 10 µM compound and 1% DMSO. Amphotericin B was added as a positive control (final concentration 2 µM, 1% DMSO) and as a negative control, 1 µl DMSO was added (1% final concentration). Compounds and controls were added to the assay plate with the robotic dispenser Biomek FXp liquid handler (Beckman Coulter). Promastigotes were incubated with the compounds for 72 h at 27°C. The parasites were then lysed by adding 50 µl of CellTiter-Glo (Promega) and placed on an orbital shaker for 5 min at room temperature. After lysis, the resulting ATP-bioluminescence was measured using the Analyst HT plate reader (Molecular Devices). Percentage inhibition of parasite growth was calculated for each well as [1-(RLUx-RLU^+)/(RLU^--RLU^+)]*100 where RLUx, RLU^+ and RLU^- are respectively the Relative Light Units for each well, positive (amphotericin B) and negative (DMSO) controls. A screening window coefficient, denoted Z' factor, was used to evaluate the performance of the assay. The Z' factor, calculated as 1-(3σc++3σc−)/(µc+−µc−) where σc+, σc−, µc+ and µc− are respectively the standard deviation and mean values of positive and negative controls, is reflective of the assay signal dynamic range and the data variation associated with signal measurement. […] GI50 curve fitting was carried out using GraphPad Prism 4 Software (GraphPad Software Inc., San Diego, CA).

[3] = tested on: L. donovani axenic amastigotes; test: Dose response study against axenic amastigotes (CellTiter-Glo); type: cell-based, Leishmania donovani; conditions: Leishmania donovani; 72 h at 37°C, CellTiter-Glo; read-out: GI50 Axenic amastigote
Description: L. donovani axenic amastigotes (5×10^5 cells/ml in axenic amastigote media) were dispensed in sterile 96-well flat white opaque assay plates (Greiner Bio-One) using a WellMate multichannel dispenser (Matrix). […] 1% DMSO and amphotericin B (2 µM, 1% DMSO final concentration) were added as negative and positive controls respectively. Axenic amastigotes were incubated with the compounds for 72 h at 37°C with 5% CO2. Parasite viability was then measured using CellTiter-Glo as described above.

[4] = tested on: L. donovani intracellular amastigotes; test: Intracellular amastigote high-throughput image-based assay in infected THP-1 macrophages; type: cell-based, Leishmania donovani; conditions: for GI50: Leishmania donovani, THP-1, 72 h, L. donovani in THP-1, 72 h, parasites per host cell, read-out: GI50 Intracellular amastigote
Description: as §1

SMILES	GI50 [1]	Selectivity [1]	GI50 [2]	GI50 [3]	Specificity [4]	GI50 [4]	Specificity ([4]; ratio between promastigote GI50 and intracellular amastigote GI50, >2 more active against intracellular amastigote, <0.4 more active against promastigotes)
CC[C@@H](C(=O)[C@@H](C)[C@@H](O)[C@H](C)[C@@H]1O[C@@H]([C@@H](CC)C(=O)O)CC[C@@H]1C)[C@H]1O[C@]2(C=C[C@@H](O)[C@]3(CC[C@@](C)([C@H]4CC[C@](O)(CC)[C@H](C)O4)O3)O2)[C@H](C)C[C@@H]1C [Salinomycin]	16.1 µM	17.30	2.71 µM	0.06 µM	2.92	0.92 µM	–
CCOc1ccccc1OCCN[C@H](C)Cc1ccc(OC)c(S(N)(=O)=O)c1 [Tamsulosin]	28 µM	4.43	20 µM	> 50 µM	–	6.3 µM	3.17
